Experimental data as given in US12295959B2 (priority 2021, dated 2025).

Assays:
[1] = target: T1, 5-HT2C edited (accession number AAF35842.1) (Homo sapiens, UniProt P28335, I156V/I160V/N158S); assay: biochemical; type: binding
Target sequence in this assay (P28335 33-458 I156V/N158S/I160V limits assumed): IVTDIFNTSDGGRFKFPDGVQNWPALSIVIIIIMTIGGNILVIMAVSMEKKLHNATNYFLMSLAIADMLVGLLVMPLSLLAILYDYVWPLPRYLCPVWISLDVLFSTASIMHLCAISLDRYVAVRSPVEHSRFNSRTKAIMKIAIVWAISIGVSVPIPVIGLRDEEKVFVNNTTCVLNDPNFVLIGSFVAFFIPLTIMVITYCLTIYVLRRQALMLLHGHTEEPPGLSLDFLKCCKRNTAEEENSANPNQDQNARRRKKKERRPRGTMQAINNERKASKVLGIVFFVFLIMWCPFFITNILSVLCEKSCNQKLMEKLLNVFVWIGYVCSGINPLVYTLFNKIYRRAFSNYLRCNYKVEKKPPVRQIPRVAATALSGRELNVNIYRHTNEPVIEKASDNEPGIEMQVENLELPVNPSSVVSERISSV

[2] = target: T1, 5-HT2C edited (accession number AAF35842.1); assay: cell-based
Target sequence in this assay (P28335 whole entry I156V/N158S/I160V, looked up): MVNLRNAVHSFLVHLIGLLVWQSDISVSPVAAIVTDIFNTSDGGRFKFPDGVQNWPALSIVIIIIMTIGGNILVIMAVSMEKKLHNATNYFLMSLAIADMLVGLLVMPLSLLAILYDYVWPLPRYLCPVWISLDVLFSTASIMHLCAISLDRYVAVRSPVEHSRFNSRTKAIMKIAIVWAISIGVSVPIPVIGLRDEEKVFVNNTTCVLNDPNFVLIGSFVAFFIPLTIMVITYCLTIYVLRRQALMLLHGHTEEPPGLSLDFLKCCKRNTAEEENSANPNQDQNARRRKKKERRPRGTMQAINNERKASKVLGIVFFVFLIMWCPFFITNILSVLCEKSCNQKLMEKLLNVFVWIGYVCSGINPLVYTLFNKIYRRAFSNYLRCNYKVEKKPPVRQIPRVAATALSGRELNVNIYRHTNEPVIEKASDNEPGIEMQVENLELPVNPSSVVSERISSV

[3] = target: 5-HT2C (Homo sapiens, UniProt P28335, I156V/I160V/N158S); assay: cell-based
Chain of 5-HT2C (P28335 33-458 I156V/N158S/I160V limits assumed): as the sequence (P28335 33-458 I156V/N158S/I160V limits assumed) above

| SMILES | IC50 [1] | EC50 [2] | IC50 [3] |
| --- | --- | --- | --- |
| CN1CCc2[nH]c3cc(OCc4ccccc4)ccc3c2CC1 [Compound 1, 8-(benzyloxy)-3-methyl-1,2,3,4,5,6-hexahydroazepino[4,5-b]indole] | 101 to 1000 nM | 1000 to 10000 nM | – |
| Cn1c2c(c3ccc(OCc4ccc(F)cc4)cc31)CCNCC2 [Compound 9, 8-((4-fluorobenzyl)oxy)-6-methyl-1,2,3,4,5,6-hexahydroazepino[4,5-b]indole] | 101 to 1000 nM | 1000 to 10000 nM | – |
| CN1CCc2[nH]c3cc(Oc4ccccc4)ccc3c2CC1 [Compound 12, 3-methyl-8-phenoxy-1,2,3,4,5,6-hexahydroazepino[4,5-b]indole] | 101 to 1000 nM | 1000 to 10000 nM | > 10000 nM |
| c1ccc(COc2ccc3[nH]c4c(c3c2)CCNCC4)cc1 [Compound 25, 9-(benzyloxy)-1,2,3,4,5,6-hexahydroazepino[4,5-b]indole] | 10 to 100 nM | 10 to 100 nM | > 10000 nM |
| c1ccc(Oc2ccc3c4c([nH]c3c2)CCNCC4)cc1 [Compound 11, 8-phenoxy-1,2,3,4,5,6-hexahydroazepino[4,5-b]indole] | 101 to 1000 nM | 101 to 1000 nM | > 10000 nM |
| Cn1c2c(c3c(OCc4ccccc4)cccc31)CCNCC2 [Compound 19, 10-(benzyloxy)-6-methyl-1,2,3,4,5,6-hexahydroazepino[4,5-b]indole] | 10 to 100 nM | 10 to 100 nM | – |
| c1ccc(COc2cccc3[nH]c4c(c23)CCNCC4)cc1 [Compound 4, 10-(benzyloxy)-1,2,3,4,5,6-hexahydroazepino[4,5-b]indole] | < 10 nM | < 10 nM | – |
| Fc1ccc(Oc2ccc3c4c([nH]c3c2)CCNCC4)cc1 [Compound 15, 8-(4-fluorophenoxy)-1,2,3,4,5,6-hexahydroazepino[4,5-b]indole] | 101 to 1000 nM | 101 to 1000 nM | – |
| CN1CCc2[nH]c3ccc(OCc4ccccc4)cc3c2CC1 [Compound 26, 9-(benzyloxy)-3-methyl-1,2,3,4,5,6-hexahydroazepino[4,5-b]indole] | 101 to 1000 nM | 101 to 1000 nM | 101 to 1000 nM |
| c1ccc(COc2ccc3c4c([nH]c3c2)CCNCC4)cc1 [Compound 3, 8-(benzyloxy)-1,2,3,4,5,6-hexahydroazepino[4,5-b]indole] | 101 to 1000 nM | 101 to 1000 nM | – |
| Cn1c2c(c3c(Oc4ccc(F)cc4)cccc31)CCNCC2 [Compound 23, 10-(4-fluorophenoxy)-6-methyl-1,2,3,4,5,6-hexahydroazepino[4,5-b]indole] | 10 to 100 nM | 101 to 1000 nM | – |
| Cn1c2c(c3ccc(Oc4ccccc4)cc31)CCNCC2 [Compound 13, 6-methyl-8-phenoxy-1,2,3,4,5,6-hexahydroazepino[4,5-b]indole] | 101 to 1000 nM | 1000 to 10000 nM | – |
| Cn1c2c(c3ccc(Oc4ccc(F)cc4)cc31)CCNCC2 [Compound 17, 8-(4-fluorophenoxy)-6-methyl-1,2,3,4,5,6-hexahydroazepino[4,5-b]indole] | 10 to 100 nM | 1000 to 10000 nM | – |
| CN1CCc2[nH]c3cccc(OCc4ccccc4)c3c2CC1 [Compound 2, 10-(benzyloxy)-3-methyl-1,2,3,4,5,6-hexahydroazepino[4,5-b]indole] | < 10 nM | 10 to 100 nM | 10 to 100 nM |
| CN1CCc2c(n(C)c3cccc(Oc4ccc(F)cc4)c23)CC1 [Compound 24, 10-(4-fluorophenoxy)-3,6-dimethyl-1,2,3,4,5,6-hexahydroazepino[4,5-b]indole] | 10 to 100 nM | 101 to 1000 nM | 10 to 100 nM |
| CN1CCc2c(n(C)c3cc(OCc4ccc(F)cc4)ccc23)CC1 [Compound 10, 8-((4-fluorobenzyl)oxy)-3,6-dimethyl-1,2,3,4,5,6-hexahydroazepino[4,5-b]indole] | 101 to 1000 nM | 1000 to 10000 nM | 1000 to 10000 nM |
| Fc1ccc(COc2ccc3c4c([nH]c3c2)CCNCC4)cc1 [Compound 7, 8-((4-fluorobenzyl)oxy)~1,2,3,4,5,6-hexahydroazepino[4,5-b]indole] | 101 to 1000 nM | 101 to 1000 nM | > 10000 nM |
| c1ccc(Oc2cccc3[nH]c4c(c23)CCNCC4)cc1 [Compound 20, 10-phenoxy-1,2,3,4,5,6-hexahydroazepino[4,5-b]indole] | < 10 nM | < 10 nM | – |
| Fc1ccc(Oc2cccc3[nH]c4c(c23)CCNCC4)cc1 [Compound 21, 10-(4-fluorophenoxy)-1,2,3,4,5,6-hexahydroazepino[4,5-b]indole] | < 10 nM | < 10 nM | – |
| CN1CCc2[nH]c3cc(OCc4ccc(F)cc4)ccc3c2CC1 [Compound 8, 8-((4-fluorobenzyl)oxy)-3-methyl-1,2,3,4,5,6-hexahydroazepino[4,5-b]indole] | 101 to 1000 nM | 1000 to 10000 nM | 1000 to 10000 nM |
| CN1CCc2c(n(C)c3cc(OCc4ccccc4)ccc23)CC1 [Compound 6, 8-(benzyloxy)-3,6-dimethyl-1,2,3,4,5,6-hexahydroazepino[4,5-b]indole] | 101 to 1000 nM | 1000 to 10000 nM | – |
| CN1CCc2[nH]c3c(OCc4ccccc4)cccc3c2CC1 [Compound 28, 7-(benzyloxy)-3-methyl-1,2,3,4,5,6-hexahydroazepino[4,5-b]indole] | 101 to 1000 nM | 101 to 1000 nM | 101 to 1000 nM |
| CN1CCc2c(n(C)c3cc(Oc4ccccc4)ccc23)CC1 [Compound 14, 3,6-dimethyl-8-phenoxy-1,2,3,4,5,6-hexahydroazepino[4,5-b]indole] | 101 to 1000 nM | 101 to 1000 nM | > 10000 nM |
| CN1CCc2c(n(C)c3cc(Oc4ccc(F)cc4)ccc23)CC1 [Compound 18, 8-(4-fluorophenoxy)-3,6-dimethyl-1,2,3,4,5,6-hexahydroazepino[4,5-b]indole] | 101 to 1000 nM | 101 to 1000 nM | 1000 to 10000 nM |
| CN1CCc2[nH]c3cc(Oc4ccc(F)cc4)ccc3c2CC1 [Compound 16, 8-(4-fluorophenoxy)-3-methyl-1,2,3,4,5,6-hexahydroazepino[4,5-b]indole] | 101 to 1000 nM | 1000 to 10000 nM | > 10000 nM |
| CN1CCc2[nH]c3cccc(Oc4ccc(F)cc4)c3c2CC1 [Compound 22, 10-(4-fluorophenoxy)-3-methyl-1,2,3,4,5,6-hexahydroazepino[4,5-b]indole] | 10 to 100 nM | < 10 nM | > 10000 nM |
| Cn1c2c(c3ccc(OCc4ccccc4)cc31)CCNCC2 [Compound 5, 8-(benzyloxy)-6-methyl-1,2,3,4,5,6-hexahydroazepino[4,5-b]indole] | 101 to 1000 nM | 1000 to 10000 nM | > 10000 nM |
| CN1CCc2[nH]c3c(Br)ccc(OCc4ccccc4)c3c2CC1 [Compound 29, 10-(benzyloxy)-7-bromo-3-methyl-1,2,3,4,5,6-hexahydroazepino[4,5-b]indole] | < 10 nM | > 10000 nM | 10 to 100 nM |
| c1ccc(COc2cccc3c4c([nH]c23)CCNCC4)cc1 [Compound 27, 7-(benzyloxy)-1,2,3,4,5,6-hexahydroazepino[4,5-b]indole] | 101 to 1000 nM | 101 to 1000 nM | – |
